From ChEMBL document CHEMBL1201862, “PubChem BioAssay data set” (2004)
Active and inactive are the calls of the source.

Assays:
[1] = tested on: Vero; assay: Vero cell toxicity, dose response, cytotoxicity control, plate reader, cherry-pick samples (AID 687020); format: functional, cell-based; settings: Chlorocebus sabaeus
[2] = tested on: HeLa; assay: HeLa cell cytotoxicity, dose response, cytotoxicity control, ATP luminescence, cherry-pick samples (AID 687004); format: functional, cell-based; settings: Homo sapiens
[3] = molecular target: SWI/SNF-related matrix-associated actin-dependent regulator of chromatin subfamily A member 2 (Homo sapiens, UniProt P51531); assay: Luminescence-based cell-based high throughput dose response assay to identify activators of the function of SWI/SNF related, matrix associated, actin dependent regulator of chromatin, subfamily a, member 2 (SMARCA2, BRM).; format: functional
[4] = Counterscreen for activators of the function of SWI/SNF related, matrix associated, actin dependent regulator of chromatin, subfamily a, member 2 (SMARCA2, BRM): Luminescence-based cell-based high throughput dose response assay to identify non-selective compounds using the VP16 reporter assay.; format: functional
[5] = non-specific cell cytotoxicity, dose response, cytotoxicity control for PAX8 inhibitor project, plate reader, dry powder samples (AID 743021); format: functional, cell-based
[6] = molecular target: Paired box protein Pax-8 (Homo sapiens, UniProt Q06710); assay: inhibitors of PAX8-driven TPO luciferase reporter, dose response, RMG-I cells, cherry-pick (AID 687027); format: functional, cell-based;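 also: luciferase reporter driven by Pax8 target thyroperoxidase promoter measured by SteadyGlo luminescence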
[7] = inhibitors of CMV-promoter luciferase reporter, dose response, counter-screen for Pax8 inhibitor project, cell-based, HEK293, luminescence, dry powder (AID 743020); format: functional
[8] = IGROV1 ovarian cancer cell cytotoxicity, dose response, PAX8 inhibitor project, plate reader, dry powder samples (AID 743043); format: functional, cell-based; settings: IGROV-1
[9] = NIH:OVCAR-3 ovarian cancer cell cytotoxicity, dose response, PAX8 inhibitor project, plate reader, dry powder samples (AID 743044); format: functional, cell-based
[10] = cells; format: functional, cell-based
[11] = molecular target: T1, Trace amine-associated receptor 1 (Homo sapiens, UniProt Q96RJ0); assay: Counterscreen for agonists of the human trace amine associated receptor 1 (hTAAR1): Fluorescence-based cell-based high throughput dose response assay to identify hTAAR1 agonist that also desensitize TAAR1 receptor response.; format: functional
[12] = cells; format: functional, cell-based; remark: listed apart in the source
[13] = molecular target: T1, Trace amine-associated receptor 1; assay: Fluorescence-based cell-based high throughput dose response assay to identify agonists of the human trace amine associated receptor 1 (TAAR1).; format: functional
[14] = tested on: A549; assay: A549 cell toxicity, dose response, cytotoxicity control, plate reader, cherry-pick samples (AID 687028); format: functional, cell-based; settings: Homo sapiens
[15] = LMP1-driven NF-kB reporter inhibition, dose response, cell-based, luciferase reporter, luminescence, dry powder, set 2 (AID 624376); format: functional
[16] = inhibitors of LMP1-driven NF-kB reporter, dose response, cell-based, EBV LMP1, luciferase, dry powder, set 2 (AID 624361); format: functional
[17] = T. cruzi growth inhibition in host cells, dose response, cell-based, plate reader, dry powder, set 2 (AID 652275); format: functional
[18] = NIH/3T3 fibroblast cytotoxicity, dose response, cytotoxicity control, cell-based, plate reader, dry powder, set 2 (AID 652280); format: functional; settings: NIH3T3
[19] = T. cruzi intracellular amastigote growth inhibition, dose response, imaging, CA-I/72 strain, bovine embryo skeletal muscle, dry powder (AID 651885); format: functional, cell-based
[20] = IRAP inhibitors, dose response, selectivity assay for ERAP1 modulator project, biochemical, Leu-AMC fluorescence, cherry-picked samples, set 2 (AID 743340)
[21] = HEK293 cell cytotoxicity, dose response, cytotoxicity control, cherry-picks, set 5 (AID 1053117); format: functional, cell-based
[22] = HepG2 cell cytotoxicity, dose response, cytotoxicity control, cherry-picked samples (AID 1159577); format: functional, cell-based
[23] = P. falciparum Dd2 growth inhibitors, dose response, SYBR Green, cherry-picked samples (AID 1159567); format: functional, cell-based
[24] = HepG2 cell cytotoxicity, dose response, cytotoxicity control, cherry-picks, set 5 (AID 1053118); format: functional, cell-based
[25] = A549 cell cytotoxicity, dose response, cytotoxicity control, cherry-picks, 26 µM top dose (AID 1053119); format: functional, cell-based
[26] = cytotoxicity in HeLa cells, dose response, cytotoxicity control, cell-based, plate reader, dry powder (AID 651946); format: functional

T1 sequence (Q96RJ0 whole entry): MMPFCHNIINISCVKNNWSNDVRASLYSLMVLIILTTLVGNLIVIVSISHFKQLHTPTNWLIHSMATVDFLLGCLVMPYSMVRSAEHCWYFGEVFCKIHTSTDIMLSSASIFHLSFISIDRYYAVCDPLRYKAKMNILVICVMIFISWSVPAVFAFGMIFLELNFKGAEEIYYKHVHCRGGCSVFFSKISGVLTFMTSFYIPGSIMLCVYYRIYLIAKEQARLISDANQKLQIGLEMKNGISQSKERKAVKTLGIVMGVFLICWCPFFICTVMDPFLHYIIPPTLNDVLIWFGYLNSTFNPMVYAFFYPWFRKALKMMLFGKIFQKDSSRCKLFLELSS
Chain of Paired box protein Pax-8 (Q06710 whole entry): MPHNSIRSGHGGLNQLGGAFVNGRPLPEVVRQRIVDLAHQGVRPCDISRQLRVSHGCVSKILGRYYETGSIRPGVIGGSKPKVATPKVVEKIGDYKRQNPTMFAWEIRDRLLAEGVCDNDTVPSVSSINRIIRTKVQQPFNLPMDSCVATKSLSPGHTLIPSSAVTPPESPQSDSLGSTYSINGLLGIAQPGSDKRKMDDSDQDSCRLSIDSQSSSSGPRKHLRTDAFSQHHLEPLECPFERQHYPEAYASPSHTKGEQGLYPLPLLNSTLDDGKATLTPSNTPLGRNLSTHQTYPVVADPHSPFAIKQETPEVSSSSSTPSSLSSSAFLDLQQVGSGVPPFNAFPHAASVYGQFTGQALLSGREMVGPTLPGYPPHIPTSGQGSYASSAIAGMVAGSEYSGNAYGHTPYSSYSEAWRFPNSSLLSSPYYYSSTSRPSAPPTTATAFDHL
Chain of SWI/SNF-related matrix-associated actin-dependent regulator of chromatin subfamily A member 2 (P51531 whole entry): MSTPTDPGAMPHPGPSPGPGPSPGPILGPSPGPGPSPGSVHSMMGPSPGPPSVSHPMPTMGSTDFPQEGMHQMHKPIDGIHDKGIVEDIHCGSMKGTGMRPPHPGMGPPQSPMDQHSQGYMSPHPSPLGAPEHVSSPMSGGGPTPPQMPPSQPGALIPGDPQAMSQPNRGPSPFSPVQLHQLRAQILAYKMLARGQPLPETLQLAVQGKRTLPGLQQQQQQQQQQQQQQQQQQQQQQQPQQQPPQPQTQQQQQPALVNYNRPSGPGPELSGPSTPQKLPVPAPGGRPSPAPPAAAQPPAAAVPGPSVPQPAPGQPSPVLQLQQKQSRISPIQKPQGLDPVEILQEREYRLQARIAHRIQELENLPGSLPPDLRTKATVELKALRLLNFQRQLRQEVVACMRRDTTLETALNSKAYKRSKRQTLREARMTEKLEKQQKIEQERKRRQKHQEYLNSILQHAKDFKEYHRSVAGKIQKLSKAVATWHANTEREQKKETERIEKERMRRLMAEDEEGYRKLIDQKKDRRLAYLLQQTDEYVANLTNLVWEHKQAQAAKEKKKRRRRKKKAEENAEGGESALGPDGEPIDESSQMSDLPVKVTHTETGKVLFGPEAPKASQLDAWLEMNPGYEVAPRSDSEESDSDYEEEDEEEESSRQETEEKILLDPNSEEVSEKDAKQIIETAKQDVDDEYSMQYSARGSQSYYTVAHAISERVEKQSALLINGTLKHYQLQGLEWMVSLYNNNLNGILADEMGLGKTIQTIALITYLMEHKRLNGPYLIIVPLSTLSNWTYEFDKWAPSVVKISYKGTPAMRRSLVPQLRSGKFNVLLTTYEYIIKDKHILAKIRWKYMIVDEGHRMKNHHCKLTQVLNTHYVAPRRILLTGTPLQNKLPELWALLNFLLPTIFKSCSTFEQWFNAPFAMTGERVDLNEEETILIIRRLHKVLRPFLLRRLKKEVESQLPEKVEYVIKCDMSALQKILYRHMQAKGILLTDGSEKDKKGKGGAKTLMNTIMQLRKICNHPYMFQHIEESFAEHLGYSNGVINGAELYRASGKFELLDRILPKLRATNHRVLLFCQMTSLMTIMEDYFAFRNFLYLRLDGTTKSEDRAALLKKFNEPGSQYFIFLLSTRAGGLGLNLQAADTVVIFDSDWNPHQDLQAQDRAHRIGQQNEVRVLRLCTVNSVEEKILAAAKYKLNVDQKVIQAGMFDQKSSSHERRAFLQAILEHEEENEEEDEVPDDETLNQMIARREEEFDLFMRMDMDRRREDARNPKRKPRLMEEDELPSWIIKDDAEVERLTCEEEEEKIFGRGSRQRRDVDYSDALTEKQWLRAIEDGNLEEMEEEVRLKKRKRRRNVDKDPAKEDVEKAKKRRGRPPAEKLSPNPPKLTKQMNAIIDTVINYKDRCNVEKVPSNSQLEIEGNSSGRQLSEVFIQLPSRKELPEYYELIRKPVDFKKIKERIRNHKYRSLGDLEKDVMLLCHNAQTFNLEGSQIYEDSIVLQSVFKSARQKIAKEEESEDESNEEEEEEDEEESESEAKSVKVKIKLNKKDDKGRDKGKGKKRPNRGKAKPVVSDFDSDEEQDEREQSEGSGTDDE

Question: For `CN(C)C1(CNC(=O)C2CCN(S(=O)(=O)c3ccccc3C(F)(F)F)CC2)CCCCC1`, which AC50 [1] is on record?
Answer: 36.2 µM (active)

Question: With `CCC(=O)N(C)C[C@H]1Oc2cc(-c3ccccc3)ccc2S(=O)(=O)N([C@H](C)CO)C[C@H]1C` as the compound, how does the AC50 [2] read?
Answer: 4.07 µM (active)

Question: Which EC50 [3] does the source give for `O=C(C=Cc1ccc(OCc2ccccc2)cc1)c1c(F)cccc1F` here?
Answer: > 91.2 µM (inactive)

Question: And the EC50 [4]?
Answer: > 91.2 µM (inactive)

Question: With `C[C@@H]1CCCCO[C@@H](CN(C)S(=O)(=O)c2ccccc2)[C@H](C)CN([C@H](C)CO)C(=O)c2cc(NC(=O)Nc3ccc(C(F)(F)F)cc3)ccc2O1` as the compound, how does the AC50 [5] read?
Answer: 54.7 µM (active)

Question: What about the AC50 [6] of the same compound?
Answer: 3.44 µM (active)

Question: And the AC50 [7]?
Answer: 28.4 µM (active)

Question: And the AC50 [8]?
Answer: 57.1 µM (active)

Question: And the AC50 [9]?
Answer: 20.2 µM (active)

Question: Which results are given for `CC(C)[C@H](NC(=O)c1ccc(Cl)cc1Cl)C(=O)N1CCC[C@H]1C(=O)NCCc1ccccc1Cl`?
Answer: EC50 [10]: > 29.9 µM (inactive); IC50 [11]: 3.47 µM (active); IC50 [12]: > 29.9 µM (inactive); EC50 [13]: 1.19 µM (active)

Question: For `CCOC(=O)[C@]12CCC=C1N(Cc1ccccc1)C(=O)[C@H](CC(=O)N1CCCC1)C2`, which AC50 [14] is on record?
Answer: 25.3 µM (active)

Question: Which AbsAC35 [15] does the source give for `COc1ccc(CNC(=O)c2cc3c(c(-c4cccc(-c5ccc(C#N)cc5)c4)n2)[C@@H](CCO)N([S@+]([O-])C(C)(C)C)C3)cc1` here?
Answer: 56.25 µM

Question: What about the AbsAC35 [16] of the same compound?
Answer: 108.86 µM

Question: For `C[C@@H]1CN([C@@H](C)CO)C(=O)c2cc(-c3ccncc3)cnc2O[C@H]1CN(C)Cc1ccc(Oc2ccccc2)cc1`, which AC50 [17] is on record?
Answer: 2.93 µM (active)

Question: What about the AC50 [18] of the same compound?
Answer: 15.3 µM (active)

Question: What about the IC50 [19] of the same compound?
Answer: > 20 µM (inactive)

Question: With `CCCN(C)C[C@@H]1OCCCC[C@H](C)Oc2ccc(NC(=O)Nc3ccc(F)cc3)cc2C(=O)N([C@H](C)CO)C[C@@H]1C` as the compound, how does the AC50 [20] read?
Answer: 13.1 µM (active)

Question: With `CO[C@H]1CN(C)C(=O)c2ccc(NC(=O)c3ccc(-c4ccccc4)cc3)cc2OC[C@@H](C)NC[C@H]1C` as the compound, how does the AC50 [21] read?
Answer: 20.5 µM (active)

Question: And the AC50 [22]?
Answer: 22 µM (active)

Question: What about the AC50 [23] of the same compound?
Answer: 6.23 µM (active)

Question: What about the AC50 [24] of the same compound?
Answer: 15.5 µM (active)

Question: And the AC50 [25]?
Answer: 26.2 µM (active)

Question: With `c1ccc(-c2nnc(SCc3cscn3)o2)cc1` as the compound, how does the AC50 [26] read?
Answer: > 52 µM (inactive)
